Patent publication US20130217664A1, “NOVEL COMPOUNDS USEFUL FOR THE TREATMENT OF DEGENERATIVE AND INFLAMMATORY DISEASES” (priority 2012, published 2013)

What was measured:
human JAK1 = molecular target: T1, human JAK1 (Homo sapiens, UniProt P23458); experiment: JAK1 inhibition assay (polyGT substrate / Ulight-JAK1 peptide); format: biochemical; conditions: recombinant human JAK1 catalytic domain; polyGT or Ulight-JAK1 peptide assay
T1 construct: catalytic domain, amino acids 866-1154; catalog number PV4774; purchased Invitrogen PV4774
Outline: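 Two formats. PolyGT radiometric: 45 min at 30 °C, stopped with phosphoric acid, counted as cpm. Ulight-JAK1 peptide: 60 min at room temperature, stopped with Eu-anti-phosphotyrosine/EDTA, read as RFU. Percent inhibition normalised to vehicle and 10 μM staurosporine.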

human JAK3 = molecular target: T2, human JAK3 (Homo sapiens, UniProt P52333); experiment: JAK3 inhibition assay; format: biochemical; conditions: recombinant human JAK3 catalytic domain; polyGT substrate
T2 construct: catalytic domain (amino acids 781-1124; catalog number PV3855); purchased Invitrogen PV3855
Outline: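 Radiometric kinase assay: 0.5 ng JAK3 with 2.5 μg polyGT in Tris pH 7.5/MgCl2 buffer, 1 μM ATP plus 0.25 μCi 33P-γ-ATP, 1% DMSO, 45 min at 30 °C, stopped with phosphoric acid.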

human TYK2 = molecular target: T3, human TYK2 (Homo sapiens, UniProt P29597); experiment: TYK2 inhibition assay; format: biochemical; conditions: recombinant human TYK2 catalytic domain, polyGT substrate
T3 construct: catalytic domain (amino acids 871-1187; catalog number 08-147); purchased Carna Biosciences 08-147
T3 sequence (P29597 871-1187): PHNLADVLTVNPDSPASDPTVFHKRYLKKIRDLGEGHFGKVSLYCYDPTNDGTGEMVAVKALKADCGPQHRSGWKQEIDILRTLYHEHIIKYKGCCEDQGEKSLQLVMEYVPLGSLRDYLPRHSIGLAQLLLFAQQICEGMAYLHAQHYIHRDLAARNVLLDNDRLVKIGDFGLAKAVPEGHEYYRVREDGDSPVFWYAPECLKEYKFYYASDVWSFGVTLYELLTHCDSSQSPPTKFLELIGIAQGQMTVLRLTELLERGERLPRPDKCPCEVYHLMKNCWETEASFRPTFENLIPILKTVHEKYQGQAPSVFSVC
Outline: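 Radiometric kinase reaction run 90 min at 30 °C, stopped with phosphoric acid, washed and scintillation-counted.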

[1] = system: pSTAT1(2)-luciferase reporter in HeLa cells triggered with human OSM; experiment: JAK-STAT signalling assay; format: cell-based; conditions: Homo sapiens, HeLa, HeLa cells, pSTAT1(2)-luciferase reporter, human OSM 33 ng/mL; read-out: JAK-STAT IC50
Description: JAK-STAT Signalling Assay
HeLa cells were maintained in Dulbecco's Modified Eagle's Medium (DMEM) containing 10% heat inactivated fetal calf serum, 100 U/mL penicillin and 100 μg/mL streptomycin. HeLa cells were used at 70% confluence for transfection. 20,000 cells in 87 μL cell culture medium were transiently transfected with 40 ng pSTAT1(2)-luciferase reporter (Panomics), 8 ng of LacZ reporter as internal control reporter and 52 ng of pBSK using 0.32 μL Jet-PEI (Polyplus) as transfection reagent per well in 96-well plate format. After overnight incubation at 37° C., 5% CO2, transfection medium was removed. 81 μL of DMEM+1.5% heat inactivated fetal calf serum was added. 9 μL compound at 10× concentration was added for 60 min and then 10 μL of human OSM (Peprotech) at 33 ng/mL final concentration.
After overnight incubation at 37° C., 5% CO2 cells were lysed by adding 100 μL lysis buffer/well (PBS, 0.9 mM CaCl2, 0.5 mM MgCl2, 10% Trehalose, 0.05% Tergitol NP9, 0.3% BSA).
40 μL of cell lysate was used to read β-galactosidase activity by adding 180 μL β-Gal solution (30 μL ONPG 4 mg/mL+150 μL β-Galactosidase buffer (0.06 M Na2HPO4, 0.04 M NaH2PO4, 1 mM MgCl2)) for 20 min.
Luciferase activity was measured using 40 μL cell lysate plus 40 μL of Steadylite as described by the manufacturer (Perkin Elmer), on the Envision (Perkin Elmer).
The positive and negative controls were used to calculate z′ and ‘percent inhibition’ (PIN) values.
Percentage inhibition=((fluorescence determined in the presence of vehicle−fluorescence determined for sample with test compound present)divided by(fluorescence determined in the presence of vehicle−fluorescence determined for sample without trigger))*100.
PIN values were plotted for compounds tested in dose-response and EC50 values were derived.

T2 sequence (P52333 781-1124): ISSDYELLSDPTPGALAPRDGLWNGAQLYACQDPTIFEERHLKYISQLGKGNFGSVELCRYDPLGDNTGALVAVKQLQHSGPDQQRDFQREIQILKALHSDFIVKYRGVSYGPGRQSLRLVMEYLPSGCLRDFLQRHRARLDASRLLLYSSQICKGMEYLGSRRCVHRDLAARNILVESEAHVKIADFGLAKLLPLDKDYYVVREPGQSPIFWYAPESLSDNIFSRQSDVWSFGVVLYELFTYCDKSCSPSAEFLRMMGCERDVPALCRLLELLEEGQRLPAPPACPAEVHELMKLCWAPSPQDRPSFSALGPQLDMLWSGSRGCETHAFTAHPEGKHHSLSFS
T1 sequence (P23458 866-1154): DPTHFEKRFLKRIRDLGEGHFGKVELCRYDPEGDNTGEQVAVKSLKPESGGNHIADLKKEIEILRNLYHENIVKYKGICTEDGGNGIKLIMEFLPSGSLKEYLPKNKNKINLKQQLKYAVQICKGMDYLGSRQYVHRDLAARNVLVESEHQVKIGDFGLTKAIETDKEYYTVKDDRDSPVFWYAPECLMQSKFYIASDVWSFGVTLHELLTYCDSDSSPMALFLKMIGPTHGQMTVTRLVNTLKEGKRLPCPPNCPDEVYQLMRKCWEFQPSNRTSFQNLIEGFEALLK

IC50 (human JAK1) | IC50 (human JAK3) | IC50 (human TYK2) | IC50 [1] | Structure (SMILES)
0.01 to 100 nM | 101 to 500 nM | 0.01 to 100 nM | 1 to 500 nM | CCc1cc(C2=CCOCC2)ccc1N(C)c1cc2c(cn1)ncn2C [Compound 153, N-(4-(3,6-dihydro-2H-pyran-4-yl)-2-ethylphenyl)-N,1-dimethyl-1H-imidazo[4,5-c]pyridin-6-amine]
0.01 to 100 nM | > 1000 nM | 101 to 500 nM | > 1000 nM | CCc1cc(C2=CCN(C(=O)OC(C)(C)C)CC2)ccc1N(C)c1cc2c(cn1)ncn2C [Compound 154, tert-butyl 4-(3-ethyl-4-(methyl(1-methyl-1H-imidazo[4,5-c]pyridin-6-yl)amino)phenyl)-5,6-dihydropyridine-1(2H)-carboxylate]
0.01 to 100 nM | 101 to 500 nM | 0.01 to 100 nM | 501 to 1000 nM | CCc1cc(-c2cnccc2Cl)ccc1N(C)c1cc2c(cn1)ncn2C [Compound 155, N-(4-(4-chloropyridin-3-yl)-2-ethylphenyl)-N,1-dimethyl-1H-imidazo[4,5-c]pyridin-6-amine]
0.01 to 100 nM | > 1000 nM | 0.01 to 100 nM | 501 to 1000 nM | CCc1cc(-c2noc(CCC#N)n2)ccc1N(C)c1cc2c(cn1)ncn2C [Compound 156, 3-(3-(3-Ethyl-4-(methyl(1-methyl-1H-imidazo[4,5-c]pyridin-6-yl)amino)phenyl)-1,2,4-oxadiazol-5-yl)propanenitrile]
0.01 to 100 nM | > 1000 nM | 0.01 to 100 nM | > 1000 nM | CCc1cc(-c2noc(COC)n2)ccc1N(C)c1cc2c(cn1)ncn2C [Compound 157, N-(2-ethyl-4-(5-(methoxymethyl)-1,2,4-oxadiazol-3-yl)phenyl)-N,1-dimethyl-1H-imidazo[4,5-c]pyridin-6-amine]
0.01 to 100 nM | 101 to 500 nM | 0.01 to 100 nM | 1 to 500 nM | CCC(=O)N1CC=C(c2ccc(N(C)c3cc4c(cn3)ncn4C)c(CC)c2)CC1 [Compound 158, 1-(4-(3-ethyl-4-(methyl(1-methyl-1H-imidazo[4,5-c]pyridin-6-yl)amino)phenyl)-5,6-dihydropyridin-1(2H)-yl)propan-1-one]
0.01 to 100 nM | 501 to 1000 nM | 101 to 500 nM | > 1000 nM | CCc1cc(C(O)C(F)(F)F)ccc1N(C)c1cc2c(cn1)ncn2C (centres unmarked) [Compound 159, 1-(3-Ethyl-4-(methyl(1-methyl-1H-imidazo[4,5-c]pyridin-6-yl)amino)phenyl)-2,2,2-trifluoroethanol]
0.01 to 100 nM | > 1000 nM | > 1000 nM | > 1000 nM | CCc1cc(C(=O)NCCO)ccc1N(C)c1cc2c(cn1)ncn2C [Compound 160, 3-ethyl-N-(2-hydroxyethyl)-4-(methyl(1-methyl-1H-imidazo[4,5-c]pyridin-6-yl)amino)benzamide]
0.01 to 100 nM | 501 to 1000 nM | 501 to 1000 nM | 501 to 1000 nM | CCc1cc(-c2cccc(C#N)c2)ccc1N(C)c1cc2c(cn1)ncn2C [Compound 163, 3′-ethyl-4′-(methyl(1-methyl-1H-imidazo[4,5-c]pyridin-6-yl)amino)biphenyl-3-carbonitrile]
0.01 to 100 nM | 101 to 500 nM | 0.01 to 100 nM | 501 to 1000 nM | CCc1cc(-c2ccccc2)ccc1N(C)c1cc2c(cn1)ncn2C [Compound 164, N-(3-ethylbiphenyl-4-yl)-N,1-dimethyl-1H-imidazo[4,5-c]pyridin-6-amine]
0.01 to 100 nM | 101 to 500 nM | 0.01 to 100 nM | 1 to 500 nM | CCc1cc(C2=CCN(C(C)=O)CC2)ccc1N(C)c1cc2c(cn1)ncn2C [Compound 168, 1-(4-(3-ethyl-4-(methyl(1-methyl-1H-imidazo[4,5-c]pyridin-6-yl)amino)phenyl)-5,6-dihydropyridin-1(2H)-yl)ethanone]
0.01 to 100 nM | 101 to 500 nM | 0.01 to 100 nM | 1 to 500 nM | CCNC(=O)N1CC=C(c2ccc(N(C)c3cc4c(cn3)ncn4C)c(CC)c2)CC1 [Compound 172, N-ethyl-4-(3-ethyl-4-(methyl(1-methyl-1H-imidazo[4,5-c]pyridin-6-yl)amino)phenyl)-5,6-dihydropyridine-1(2H)-carboxamide]
0.01 to 100 nM | > 1000 nM | 0.01 to 100 nM | 501 to 1000 nM | CCc1cc(-c2nnc(C)o2)ccc1N(C)c1cc2c(cn1)ncn2C [Compound 177, N-(2-Ethyl-4-(5-methyl-1,3,4-oxadiazol-2-yl)phenyl)-N,1-dimethyl-1H-imidazo[4,5-d]pyridin-6-amine]
0.01 to 100 nM | > 1000 nM | 101 to 500 nM | 501 to 1000 nM | CCc1cc(-c2nc(C)no2)ccc1N(C)c1cc2c(cn1)ncn2C [Compound 178, N-(2-Ethyl-4-(3-methyl-1,2,4-oxadiazol-5-yl)phenyl)-N,1-dimethyl-1H-imidazo[4,5-d]pyridin-6-amine]
0.01 to 100 nM | > 1000 nM | 101 to 500 nM | > 1000 nM | CCc1cc(-c2cncc(C#N)c2)ccc1N(C)c1cc2c(cn1)ncn2C [Compound 189, 5-(3-ethyl-4-(methyl(1-methyl-1H-imidazo[4,5-c]pyridin-6-yl)amino)phenyl)nicotino-nitrile]
0.01 to 100 nM | 101 to 500 nM | 101 to 500 nM | 501 to 1000 nM | CCc1cc(CNC(=O)OC)ccc1N(C)c1cc2c(cn1)ncn2C [Compound 191, Methyl 3-ethyl-4-(methyl(1-methyl-1H-imidazo[4,5-c]pyridin-6-yl)amino)benzyl carbamate]
0.01 to 100 nM | 101 to 500 nM | 0.01 to 100 nM | 501 to 1000 nM | CCc1cc(C2=CCN(C(=O)CCC#N)CC2)ccc1N(C)c1cc2c(cn1)ncn2C [Compound 196, 4-(4-(3-ethyl-4-(methyl(1-methyl-1H-imidazo[4,5-c]pyridin-6-yl)amino)phenyl)-5,6-dihydropyridin-1(2H)-yl)-4-oxobutanenitrile]
0.01 to 100 nM | 101 to 500 nM | 0.01 to 100 nM | 501 to 1000 nM | CCc1cc(C2=CCN(C(=O)C3(C#N)CC3)CC2)ccc1N(C)c1cc2c(cn1)ncn2C [Compound 198, 1-(4-(3-ethyl-4-(methyl(1-methyl-1H-imidazo[4,5-c]pyridin-6-yl)amino)phenyl)-1,2,3,6-tetrahydropyridine-1-carbonyl)cyclopropane-carbonitrile]
0.01 to 100 nM | 101 to 500 nM | 0.01 to 100 nM | 501 to 1000 nM | CCc1cc(C2=CCN(C(=O)CC(C)(C)O)CC2)ccc1N(C)c1cc2c(cn1)ncn2C [Compound 200, 1-(4-(3-ethyl-4-(methyl(1-methyl-1H-imidazo[4,5-c]pyridin-6-yl)amino)phenyl)-5,6-dihydropyridin-1(2H)-yl)-3-hydroxy-3-methylbutan-1-one]
0.01 to 100 nM | 101 to 500 nM | 0.01 to 100 nM | 1 to 500 nM | CCc1cc(C2=CCN(C(=O)NC3(C)CC3)CC2)ccc1N(C)c1cc2c(cn1)ncn2C [Compound 202, 4-(3-ethyl-4-(methyl(1-methyl-1H-imidazo[4,5-c]pyridin-6-yl)amino)phenyl)-N-(1-methylcyclopropyl)-5,6-dihydropyridine-1(2H)-carboxamide]
